Results from EP1156045A1, “AMIDE DERIVATIVES AND DRUG COMPOSITIONS” (Nippon Shinyaku Co., Ltd., priority 1999, dated 2000).
Structures can show the parent of a compound that is named as a salt.

Legend:
Acute toxicity = type: in vivo; details: mice; orally, 300 mg/kg suspension; observed for a week after administration
Procedure: Each of the compounds in Examples 1, 5, 6, 33, 34, 39, and 48 was administered.

TGF-β = assay: Antagonistic action against TGF-β (type I procollagen α2 promoter-luciferase reporter, TGF-β1 stimulation); type: cell-based; details: mink lung epithelial cells (Mv1Lu); drug 1 µg/ml, TGF-β1 10 ng/ml; 24 hours; luciferase activity; read-out: Rate of inhibition (%)
Procedure: The test was carried out according to the method described in J. Clin. Invest., 86, 1489-1495 (1990) and J. Biol. Chem. 265, 13351-13356 (1990). A chimera plasmid was produced in which the promoter region of type I procollagen α2 gene was ligated with a luciferase gene. This plasmid was then transfected into mink lung epithelial cells (Mv1Lu) to produce a cell line stably expressing the luciferase gene under the control of the […]. The drug (1 µg/ml) and TGF-β1 (10 ng/ml) were added to Mv1Lu cells, which were then cultured for 24 hours. Then, the activity of luciferase in the cells was measured by a chemiluminescence method. The rate of inhibition was calculated from the following formula, the rate of inhibition being defined as 100% when the measured luciferase activity was equal to that in the absence of stimulation with TGF-β1: Rate of inhibition = (Lb-Lc)/(Lb-La) × 100 [formula] In this formula, La represents the luciferase activity in the absence of stimulation with TGF-β1, Lb represents the luciferase activity in the presence of stimulation with TGF-β1, and Lc represents the luciferase activity in the presence of TGF-β1 and the test drug.

[1] = test system: promoter region of the TGF-β1 gene; assay: Inhibitory effect on expression of TGF-β mRNA (TGF-β1 promoter-luciferase reporter, TNF-α stimulation); type: cell-based; details: mink lung epithelial cells (Mv1Lu); drug 1 µg/ml, TNF-α 10 ng/ml; 24 hours; luciferase activity; read-out: Rate of inhibition (%)
Procedure: The inhibitory effect of the compounds of the present invention on TGF-β production was evaluated by measuring the inhibition of TGF-β mRNA expression according to the method described in J. Biol. Chem., 264, 402-408 (1989). A chimera plasmid was produced in which the promoter region of the TGF-β1 gene was ligated with a luciferase gene. This plasmid was then transfected into mink lung epithelial cells (Mv1Lu) to produce a cell line stably expressing the luciferase gene under the control of the TGF-β1 promoter. The drug (1 µg/ml) and TNF-α (10 ng/ml) were added to Mv1Lu cells, which were then cultured for 24 hours. Then the activity of luciferase in the cells was measured by a chemiluminescence method. The rate of inhibition was calculated from the following formula, the rate of inhibition being defined as 100% when the measured luciferase activity was equal to that in the absence of stimulation with TNF-α: Rate of inhibition = (Le-Lf)/(Le-Ld) × 100 [formula] In this formula, Ld represents the luciferase activity in the absence of TNF-α, Le represents the luciferase activity in the presence of TNF-α, and Lf represents the luciferase activity in the presence of TNF-α and the test drug.

TGF-β1 = assay: Inhibition of TGF-β production (TGF-β1 released into the medium, ELISA); type: cell-based; details: human mesangial cells immortalized with SV40, cultured 4 days, TGF-β1 released during the last 2 days; for inhibition at 1 µg/mL: Mesangial cell, read-out: Rate of inhibition (%)
Procedure: The test was carried out according to the method described in Jpn. J. Pharmacol, 60, 91-96 (1992). That is, human mesangial cells immortalized with SV40 were cultured in 24-well plates, and then the medium was changed to a serum-free medium. The test drugs were added at concentrations of 1 µg/ml or 10 µg/ml, and the cells were cultured for 4 days. The amounts of TGF-β1 (a major type of-TGF-β) released into the medium during the last 2 days were quantified by ELISA kits. The rate of inhibition (%) was calculated from the following formula: Rate of inhibition = (Ta-Tb)/Ta × 100 [formula] In this formula, Ta represents the amount of TGF-β1 released into the medium in the absence of the test drug, and Tb represents the amount of TGF-β1 released into the medium in the presence of the test drug.

Structure (SMILES)	deaths (Acute toxicity)	inhibition at 1 µg/mL (TGF-β) [%]	inhibition at 1 µg/mL [1] [%]	inhibition at 1 µg/mL (TGF-β1; concentration 1 µg/ml) [%]	Rate of inhibition (%) (TGF-β1; concentration 1 µg/ml)	Rate of inhibition (%) (TGF-β1; concentration 10 µg/ml)
Cc1ccc2c(c1)c(C(=O)N1CCN(c3ccccn3)CC1)c(-c1ccccc1)n2C.Cl [Example 1, 1-(1,5-Dimethyl-2-phenylindol-3-ylcarbonyl)-4-(2-pyridyl)piperazine hydrochloride]	No deaths were observed	31.2	–	–	–	–
Cn1c(-c2ccccc2)c(C(=O)N2CC[N+]([O-])(c3ccccn3)CC2)c2ccccc21 [Example 5, 1-(1-Methyl-2-phenylindol-3-ylcarbonyl)-4-(2-pyridyl)piperazine-4-oxide]	No deaths were observed	27.4	28.2	20.9	–	–
Cl.Cn1c(-c2ccccc2)c(C(=O)N2CCN(c3ccccn3)CC2)c2ccccc21 [Example 6, 1-(1-Methyl-2-phenylindol-3-ylcarbonyl)-4-(2-pyridyl)piperazine hydrochloride]	No deaths were observed	44.6	50.1	30.2	–	–
Cc1ccc2c(c1)c(C(=O)N1CCN(c3cccnc3)CC1)c(-c1ccccc1)n2C.Cl.Cl [Example 33, 1-(1,5-Dimethyl-2-phenylindol-3-ylcarbonyl)-4-(3-pyridyl)piperazine dihydrochloride]	No deaths were observed	50.6	43.2	–	–	–
Cc1ccc2c(c1)c(C(=O)N1CCN(c3ccncc3)CC1)c(-c1ccccc1)n2C.Cl [Example 34, 1-(1,5-Dimethyl-2-phenylindol-3-ylcarbonyl)-4-(4-pyridyl)piperazine hydrochloride]	No deaths were observed	33.8	–	–	–	–
Cc1cc2c(C(=O)N3CCN(c4ccncc4)CC3)c(-c3ccccc3)n(C)c2cc1C.Cl [Example 39, 1-(1,5,6-Trimethyl-2-phenylindol-3-ylcarbonyl)-4-(4-pyridyl)-piperazine hydrochloride]	No deaths were observed	52.4	27.4	–	–	–
Cl.Cn1c(-c2ccccc2)c(C(=O)N2CCN(c3ccc([N+](=O)[O-])cn3)CC2)c2ccccc21 [Example 48, 1-(1-Methyl-2-phenylindol-3-ylcarbonyl)-4-(5-nitro-2-pyridyl)-piperazine hydrochloride]	No deaths were observed	63.7	74.7	–	–	–
Cc1ccc2c(c1)c(C(=O)N1CCN(c3ccc([N+](=O)[O-])cn3)CC1)c(-c1ccccc1)n2C [Example 58, 1-(1,5-Dimethyl-2-phenylindol-3-ylcarbonyl)-4-(5-nitro-2-pyridyl)-piperazine hydrochloride]	–	34.8	30.2	27.6	–	–
COc1ccc2c(c1)c(C(=O)NC1CC3CCC(C1)N3C)c(-c1ccccc1)n2C.Cl (stereo not drawn) [Example 61, N-(endo-8-Methyl-8-azabicyclo[3.2.1]octa-3-yl)-5-methoxy-1-methyl-2-phenylindole-3-carboxamide hydrochloride]	–	–	–	–	69.7	–
Cc1ccc2c(C(=O)N[C@@H]3C[C@H]4CC[C@@H](C3)N4C)c(-c3ccccc3)n(C)c2c1.Cl [Example 63, N-(endo-8-Methyl-8-azabicyclo[3.2.1]octa-3-yl)-1,6-dimethyl-2-phenylindole-3-carboxamide hydrochloride]	–	–	–	–	40.7	–
Cc1ccc2c(c1)c(C(=O)N[C@H]1C[C@H]3CC[C@@H](C1)N3C)c(-c1ccccc1)n2C.Cl [Example 117, N-(endo-8-Methyl-8-azabicyclo[3.2.1]octa-3-yl)-1,5-dimethyl-2-phenylindole-3-carboxamide hydrochloride]	–	–	–	–	47.4	–
Cn1c(-c2ccccc2)c(C(=O)N2CCCN(c3ccccn3)CC2)c2ccccc21 [Example 118, 1-(1-Methyl-2-phenylindol-3-ylcarbonyl)-4-(2-pyridyl)-homopiperazine dihydrochloride]	–	51.8	48.8	–	–	–
Cc1ccc2c(c1)c(C(=O)N1CCCN(c3ccccn3)CC1)c(-c1ccccc1)n2C [Example 119, 1-(1,5-Dimethyl-2-phenylindol-3-ylcarbonyl)-4-(2-pyridyl)-homopiperazine hydrochloride]	–	53.8	39.2	–	–	–
Cn1c(-c2ccccc2)c(C(=O)N2CCCN(c3cccnc3)CC2)c2ccccc21 [Example 120, 1-(1-Methyl-2-phenylindol-3-ylcarbonyl)-4-(3-pyridyl)homopiperazine hydrochloride]	–	44.9	27.7	–	–	–
Cc1ccc2c(c1)c(C(=O)N1CCCN(c3cccnc3)CC1)c(-c1ccccc1)n2C [Example 121, 1-(1,5-Dimethyl-2-phenylindol-3-ylcarbonyl)-4-(3-pyridyl)-homopiperazine hydrochloride]	–	59	40.6	–	–	–
Cc1ccc2c(c1)c(C(=O)N1CCCN(c3ccc([N+](=O)[O-])cn3)CC1)c(-c1ccccc1)n2C [Example 129, 1-(1,5-Dimethyl-2-phenylindol-3-ylcarbonyl)-4-(5-nitro-2 pyridyl)homopiperazine]	–	64.3	–	–	–	–
Cc1ccc2c(c1)c(C(=O)N1CCCN(c3ccc(NS(C)(=O)=O)cn3)CC1)c(-c1ccccc1)n2C [Example 174, 1-(1,5-Dimethyl-2-phenylindol-3-ylcarbonyl)-4-(5-methane-sulfonylamino-2-pyridyl)homopiperazine]	–	49.8	24.8	–	–	–
COC(=O)c1ccc(N2CCCN(C(=O)c3c(-c4ccccc4)n(C)c4ccc(C)cc34)CC2)nc1 [Example 178, 1-(1,5-Dimethyl-2-phenylindol-3-ylcarbonyl)-4-(5-carbomethoxy-2-pyridyl)-homopiperazine]	–	102	43	–	–	–
CC(=O)Nc1ccc(N2CCCN(C(=O)c3c(-c4ccccc4)n(C)c4ccc(C)cc34)CC2)nc1 [Example 180, 1-(1,5-Dimethyl-2-phenylindol-3-ylcarbonyl)-4-(5-acetylamino-2-pyridyl)homopiperazine]	–	48.3	25.5	–	–	–
CCN(CC)S(=O)(=O)c1ccc(N2CCCN(C(=O)c3c(-c4ccccc4)n(C)c4ccc(C)cc34)CC2)nc1 [Example 183, 1-(1,5-Dimethyl-2-phenylindol-3-ylcarbonyl)-4-(5-diethylamino-sulfonyl-2-pyridyl)homopiperazine]	–	79.3	46.9	–	–	–
Cc1ccc(=O)n(-c2ccccc2)c1 [Perfenidone, reference compound]	–	–	–	–	–	1.7
